In patent US20060089408A1, “Method of treating blepharospasm with a prostaglandin derivative” (priority 2004, published 2006):
Values joined by “and” are separate entries in the source; they are usually repeats but may differ in a detail not shown here. Equal values may be shown once.

System: patients with blepharospasm
Test: Observational prospective case series of 21 consecutive patients with blepharospasm treated with Latanoprost
Type: in vivo, human
Procedure: It is the inventor's unique discovery that latanoprost improves some forms of blepharospasm. Over a period of three years starting from 2000, 21 patients with various forms of blepharospasm were treated with latanoprost. In more than 75% of the cases observed, the symptoms of blepharospasm were much improved ranging from mild resolution to complete improvement.
Observational prospective case series of 21 consecutive patients comprising mostly Asian descent with blepharospasm were treated with Latanoprost for a mean follow-up period of 1.5 years. Assessment of therapy was made by symptomatic evaluation and clinical examination. Severity of patient's initial symptoms ranged from myokimia to blepharospasm with facial dystonia.
The patients were pooled from the Los Angeles County metropolitan area and the Pacific Rim and all of the patients are of Chinese descent. The patients were excluded if they had secondary causes of blepharospasm such as light sensitivity, lid hygiene (blepharitis), dry eyes, and emotional or physical psychological stressors.
Therapeutic intervention involved administration of one drop of Latanoprost in the affected eye at night. Adverse effects were assessed by the patient's subjective feedback and physician's examination. Outcome assessment was determined mainly by subjective reporting by the patient.
Table 1 illustrates the physician's grading scale, wherein grade I signified blepharospasm isolated just to the eyes; Grade II described blepharospasm with some form of facial dystonia; and Grade III described blepharospasm with facial dystonia extending to the neck region
Table 2 illustrates patient's subjective evaluation of improvement that subjective opinion of improvement is on a scale ranging from 0 to 10, where zero indicated no improvement and 10 indicated complete resolution.
Table 3 illustrates demographics and clinical data of the patients involved in the above clinical study. In Table 3, F represent female, M represent male, duration represents duration of treatment, OU represents blepharospasm in both eyes, OD represents blepharospasm in right eye only, and OS represents blepharospasm in left eye. Date start illustrates the date starting treatment of prostaglandin derivatives, improvement illustrates the time required for first noticeable improvement, while scale imp represents scale of improvement according to the subjective evaluation grading as shown in Table 2.

Which “patients who reported moderate to complete resolution of symptoms after treatment” value (21 consecutive patients, mean follow-up 1.5 years) does the source give for CC(C)OC(=O)CCC/C=C\C[C@@H]1[C@@H](CC[C@@H](O)CCc2ccccc2)[C@H](O)C[C@@H]1O [Latanoprost, isopropyl-(Z)-7[(1R,2R,3R,5S)3,5-dihydroxy-2-[(3R)-3-hydroxy-5-phenylpentyl]cyclopentyl]-5-heptenoate] here?
Its value is “over 75%”.

What about the “cases in which symptoms of blepharospasm were much improved, ranging from mild resolution to complete improvement” value (21 patients with various forms of blepharospasm, three years starting from 2000) of the same compound?
Its value is “more than 75%”.

What about the “change in spasm of eyelids and face” value (Case 1, 30 years history, right eye, 1.5 ug per day, after 3 weeks of treatment) of the same compound?
Its value is “considerable decrease in spasm of their eyelids and face”.

What about the “patients who noted subjective improvement in their blepharospasm” value (after treatment, 21 patients) of the same compound?
Its value is 19 of 21.

What about the “patients who reported no change” value (after treatment, 21 patients) of the same compound?
Its value is 2 patients.

What about the “duration of treatment required before effects were seen” value (general statement on the series) of the same compound?
The value was “approximately 2 months”.

And the “Improvement (time required for first noticeable improvement)” value (individual patient, one drop in the affected eye at night)?
Its value is 2 months (13×) and 1 months (6×).

What about the “Scale imp (scale of improvement, patient's subjective evaluation grading)” value (individual patient, scale 0 to 10: 0 no improvement, 5 50% improvement, 10 complete resolution, one drop in the affected eye at night) of the same compound?
Its value is 5 (6×) and 10 (2×) and 8 (6×) and 7 and 9 (3×) and 6 and 0 (2×).

What about the “time at which noticeable improvements occurred after initiation of treatment” value (whole series of 21 patients) of the same compound?
Its value is 1-2 months.

And the “average amount of improvement” value (whole series, subjective scale 0 to 10)?
The value was 6.95.
